In assay [1] the target is T1, AmicoTA (Aminobacterium colombiense, UniProt D5EHC5).
T1 construct: gene Amico_1844; N-terminal His6-TEV tag kept for kinetics, cut for crystals; E. coli Rosetta (DE3) pLysS
As to the kind of experiment: half-reaction of PLP form, absorbance at […] nm. It is filed as binding.

Assay [2] deals with T1, AmicoTA. As to the kind of experiment: X-ray crystal structure, […] Å. It is filed as binding. The conditions noted are these: covalent, Schiff base with K142; tag-free protein.

T1 sequence (D5EHC5 entry or part of it): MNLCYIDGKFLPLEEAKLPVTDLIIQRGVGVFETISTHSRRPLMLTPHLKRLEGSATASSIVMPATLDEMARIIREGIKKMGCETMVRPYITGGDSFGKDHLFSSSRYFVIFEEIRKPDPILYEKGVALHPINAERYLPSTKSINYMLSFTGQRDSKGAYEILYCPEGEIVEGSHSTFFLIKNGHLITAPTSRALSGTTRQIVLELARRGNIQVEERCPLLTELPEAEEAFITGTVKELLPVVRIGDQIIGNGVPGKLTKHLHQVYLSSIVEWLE

As usually defined, the Kd is the free concentration of one partner at which half of the binding sites on the other are occupied at equilibrium, for simple one-to-one binding. Compound `C[C@@H](N)C(=O)O` [D-alanine] displayed a Kd at AmicoTA [1] of 50 ± 6 mM. Still for that read-out and setting: then `N[C@H](CCC(=O)O)C(=O)O` [D-glutamate], with 2.1 ± 0.2 mM; and `CC(C)C[C@@H](N)C(=O)O` [D-leucine], with 100 ± 10 mM; and `N[C@H](Cc1ccccc1)C(=O)O` [D-phenylalanine], with 19 ± 3 mM. Regarding `Cc1ncc(COP(=O)(O)O)c(C=O)c1O` [PLP], the “X-ray crystal structure, 1.9 Å” value at AmicoTA [2] was “bound via Schiff base linkage with K142”.

These data come from article PMC10003956, “To the Understanding of Catalysis by D-Amino Acid Transaminases: A Case Study of the Enzyme from Aminobacterium colombiense” (Molecules, 2023).
